In ChEMBL document CHEMBL1201862, “PubChem BioAssay data set” (2004):
Active and inactive are the calls of the source. For most assays here, no stated cut-off is given here; in the data, actives have a measured EC50 and inactives only a lower limit.

Assays:
Streptokinase A = target: T1, Streptokinase A (Streptococcus pyogenes serotype M1, UniProt P10520); assay: S. pyogenes streptokinase expression inhibitors, potency, dose response, plasminogen activation absorbance, OD405 (AID 1914); format: functional, Streptococcus pyogenes M1 GAS;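 further: secreted streptokinase activity via plasminogen activation per viability signal from cell pellet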
T1 sequence (P10520 whole entry): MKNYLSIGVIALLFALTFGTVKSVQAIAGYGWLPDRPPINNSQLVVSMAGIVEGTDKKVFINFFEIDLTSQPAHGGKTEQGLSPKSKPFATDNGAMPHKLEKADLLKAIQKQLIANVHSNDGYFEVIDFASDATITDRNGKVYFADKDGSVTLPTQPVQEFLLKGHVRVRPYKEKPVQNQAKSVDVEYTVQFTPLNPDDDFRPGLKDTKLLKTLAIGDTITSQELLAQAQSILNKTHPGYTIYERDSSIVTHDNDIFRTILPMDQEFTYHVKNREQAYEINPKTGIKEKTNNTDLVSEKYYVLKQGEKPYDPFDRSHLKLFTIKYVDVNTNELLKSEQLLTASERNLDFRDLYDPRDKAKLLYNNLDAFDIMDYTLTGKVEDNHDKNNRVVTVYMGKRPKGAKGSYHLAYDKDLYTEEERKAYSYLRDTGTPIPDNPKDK

[1] = system: Streptococcus sp. 'group A'; assay: growth inhibition of control SK(-) GAS strain, dose response, counter-screen for streptokinase expression inhibitor project, luminescence, kanamycin, BacTiterGlo, confirmation (AID 1900); format: functional, organism-based
Streptococcus = assay: Group A Streptococcus viability loss, dose response, counter-screen for streptokinase expression inhibitor project, luminescence, BacTiterGlo (AID 1915); format: functional, organism-based;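 further: potency for reduction of bacterial viability or growth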
Cytochrome P450 1A2 = target: T2, Cytochrome P450 1A2 (Homo sapiens, UniProt P05177);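 further: PubChem cytochrome P450 panel assay, CYP1A2 panel member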
T2 sequence (P05177 whole entry): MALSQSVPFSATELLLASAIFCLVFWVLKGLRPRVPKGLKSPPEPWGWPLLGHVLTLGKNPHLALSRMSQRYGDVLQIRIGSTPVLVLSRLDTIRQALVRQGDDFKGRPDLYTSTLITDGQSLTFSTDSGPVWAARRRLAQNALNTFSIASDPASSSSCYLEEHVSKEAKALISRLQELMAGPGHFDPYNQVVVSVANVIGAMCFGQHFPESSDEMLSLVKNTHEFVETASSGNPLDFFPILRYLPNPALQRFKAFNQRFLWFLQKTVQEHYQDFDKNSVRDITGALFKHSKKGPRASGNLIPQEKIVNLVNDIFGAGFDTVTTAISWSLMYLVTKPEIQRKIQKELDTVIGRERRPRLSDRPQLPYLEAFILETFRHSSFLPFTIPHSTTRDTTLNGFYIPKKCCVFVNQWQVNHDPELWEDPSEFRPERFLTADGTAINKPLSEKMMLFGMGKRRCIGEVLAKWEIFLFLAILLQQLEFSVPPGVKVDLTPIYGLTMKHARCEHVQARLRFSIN

[2] = cytotoxicity toward NIH3T3 fibroblasts, dose response, counter-screen, cell-based, ATP luminescence, mouse fibroblasts (AID 2010); format: functional;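 further: cells exposed to compound for about 90 hours before reading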
[3] = inhibitors of intracellular T. cruzi replication, confirmation, NIH3T3 host cells, beta-gal luminescence (AID 2044); format: functional, cell-based;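 further: intracellular parasites grown in NIH/3T3 mouse fibroblasts as host cells; luminescent beta-galactosidase reporter signal from transgenic T. cruzi replicating inside host cells; inhibitors lower the luminescence signal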
[4] = Luminescence Cell-Based Dose Retest to Confirm Inhibitors of Cancer Stem Cells. [Related pubchem assays (depositor defined):AID2717, AID2721]; format: functional; conditions: Homo sapiens
[5] = target: T3, RNA-binding protein pos-1 (Caenorhabditis elegans, UniProt G5EF15); assay: inhibitors of POS-1/mex-3 RNA binding, dose response, biochemical, fluorescence polarization (AID 1964);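 further: purified POS-1 fused to maltose binding protein made in E. coli; potency of compounds blocking POS-1 binding to fluorescent RNA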
T3 sequence (G5EF15 whole entry): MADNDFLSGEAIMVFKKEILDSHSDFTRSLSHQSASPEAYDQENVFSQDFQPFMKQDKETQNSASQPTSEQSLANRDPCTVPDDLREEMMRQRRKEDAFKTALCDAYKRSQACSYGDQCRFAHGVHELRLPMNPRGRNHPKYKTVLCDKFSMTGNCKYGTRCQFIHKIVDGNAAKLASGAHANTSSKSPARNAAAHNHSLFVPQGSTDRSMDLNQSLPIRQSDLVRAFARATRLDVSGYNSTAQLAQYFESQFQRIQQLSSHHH

[6] = target: T4, Zinc finger protein mex-5 (Caenorhabditis elegans, UniProt Q9XUB2); assay: MEX-5/TCR-2 RNA interaction inhibitors, dose response, biochemical, C. elegans, fluorescence polarization (AID 1960)
T4 sequence (Q9XUB2 whole entry): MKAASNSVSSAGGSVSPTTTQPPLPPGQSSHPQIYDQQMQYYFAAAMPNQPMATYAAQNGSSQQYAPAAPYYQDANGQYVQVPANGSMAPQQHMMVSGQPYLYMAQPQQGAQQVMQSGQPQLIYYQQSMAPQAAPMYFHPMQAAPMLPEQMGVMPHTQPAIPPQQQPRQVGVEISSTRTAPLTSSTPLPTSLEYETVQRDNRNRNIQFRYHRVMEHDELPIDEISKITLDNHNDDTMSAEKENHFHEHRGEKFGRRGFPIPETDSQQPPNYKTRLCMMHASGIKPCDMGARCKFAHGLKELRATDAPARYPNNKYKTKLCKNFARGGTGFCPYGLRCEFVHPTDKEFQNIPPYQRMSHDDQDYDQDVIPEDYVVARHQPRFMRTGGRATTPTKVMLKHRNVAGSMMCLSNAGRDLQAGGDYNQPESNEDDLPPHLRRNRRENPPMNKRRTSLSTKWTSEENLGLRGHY

| Compound | EC50 (Streptokinase A) | EC50 [1] | EC50 (Streptococcus) | other results |
| --- | --- | --- | --- | --- |
| FC(F)(F)c1cccc(NC(=S)Nc2ccc(Cl)c(Cl)c2)c1 | > 150 µM (not active) |  |  |  |
| FC(F)(F)c1cccc(NC(S)=Nc2ccc(Cl)c(Cl)c2)c1 |  | 2.45 µM (active) | 6.78 µM (active) |  |
| CCNc1ncc2nc(-c3cn(C)c4ccccc34)c(=O)n(C[C@H]3CCCO3)c2n1 |  |  |  | AC50 (Cytochrome P450 1A2): 10 µM (inconclusive) |
| Cc1[nH]c2ccc(F)cc2c1CCN(Cc1cccnc1)C(S)=Nc1cccc(F)c1 |  |  |  | EC50 [2]: > 30 µM (not active); EC50 [3]: 0.608 µM (active) |
| COc1ccc(NC2=NN=C(c3c(C)[nH]c4ccccc34)CS2)cc1 | > 150 µM (not active) | 3.9 µM (active) | 13 µM (active) | AC50 [4]: 7.35 µM (active) |
| COc1cccc(N2C(=O)C3NN=C(C(=O)CN4C(=O)c5ccccc5C4=O)C3C2=O)c1 (stereo not drawn) | > 150 µM (not active) | > 150 µM (not active) | > 150 µM (not active) |  |
| COc1cc2c(cc1NC(=O)CN(C)Cc1cccc(OC)c1OC)oc1ccccc12 |  |  |  | AC50 [4]: 2.86 µM (active) |
| O=C(Nc1cccc(Cl)c1N1CCCCC1)c1ccc2c(c1)OCCO2 | > 150 µM (not active) | 9.41 µM (active) | > 150 µM (not active) | AC50 [4]: 7.74 µM (active) |
| Cc1cccc(OCCCOc2cccc3cccnc23)c1C | > 150 µM (not active) | 16.9 µM (active) | > 150 µM (not active) |  |
| CCCCCCCCCCCCCCCCCCc1ccc(C(=O)/C=C\C(=O)O)cc1 |  |  |  | AC50 (Cytochrome P450 1A2): 31.6 µM (inconclusive) |
| Cc1ccc(CCNc2c([N+](=O)[O-])nn(-c3ccccc3)[n+]2[O-])cc1 |  |  |  | EC50 [2]: > 30 µM (not active); EC50 [3]: 1.15 µM (active) |
| CC(NNc1ccccc1)=C1C(=O)NC(=O)NC1=O |  |  |  | AC50 [4]: 1.02 µM (active) |
| COC(=O)c1ccc(/C=C/c2c(-c3ccsc3)sc3ccccc23)cc1 |  |  |  | AC50 [4]: 4.12 µM (active) |
| c1ccc(N2N=C(c3cccs3)CC2c2ccco2)cc1 (stereo not drawn) | 40.1 µM (active) | > 150 µM (not active) | > 150 µM (not active) |  |
| CCN(CC)C1CCN(C(=O)c2cc(COc3ccc(F)cc3Cl)on2)C1 (stereo not drawn) |  |  |  | AC50 [4]: 1.21 µM (active) |
| CC(=O)OCC1=C(C(=O)O)N2C(=O)C(NC(=O)CCn3nc(C)c(Cl)c3C)C2SC1 (stereo not drawn) |  | 2.13 µM (active) | 1.31 µM (active) |  |
| Cn1c(Sc2ccccc2Cl)c(C=O)c2ccccc21 | 32.3 µM (inconclusive) | 27.1 µM (active) | > 150 µM (not active) |  |
| O=C(/C=C/c1cccc(F)c1)NC1CCN(Cc2ccccc2)CC1 |  |  |  | EC50 [2]: > 60 µM (not active); EC50 [3]: 0.102 µM (active) |
| CC1CCN(c2ccccc2NC(=O)c2cc3ccccc3o2)CC1 | 25.2 µM (active) | 8.15 µM (active) | 42.4 µM (active) |  |
| Cc1cccn2c(=O)c3cc(S(=O)(=O)c4ccccc4)c(=N)n(CC4CCCO4)c3nc12 (stereo not drawn) |  |  |  | EC50 [5]: 5.7 µM (inconclusive); EC50 [6]: > 300 µM (inconclusive) |
| O=C(O)c1ccc(NC(=S)NC(=O)c2cccc(COc3ccccc3)c2)cc1 |  | 18.6 µM (active) | 38 µM (active) |  |
| CCCCn1c(=O)c(C(=O)NCCc2ccccc2)c(O)c2ccccc21 | 30.9 µM (active) | 26.4 µM (active) | > 150 µM (not active) |  |

| Compound | EC50 (Streptokinase A) | EC50 [1] | EC50 (Streptococcus) | other results |
| --- | --- | --- | --- | --- |
| O=C(NNC(=S)NC(=O)c1ccc(Br)cc1)c1cccc([N+](=O)[O-])c1 | > 150 µM (not active) | 2.41 µM (active) | 9.6 µM (active) |  |
| CC(=O)c1ccc(N2CCN(S(=O)(=O)c3cc(-c4cc(C)no4)ccc3C(C)C)CC2)cc1 |  |  |  | AC50 [4]: < 0.16 µM (active) |
| CCOC(=O)c1ccc(N2C(=O)/C(=C\NNC(=O)C3COc4ccccc4O3)c3ccccc3C2=O)cc1 (stereo not drawn) |  | 1.02 µM (active) | 4.31 µM (active) |  |
| CC(C)(c1ccc(OC[C@@H]2CO2)cc1)c1ccc(OC[C@H]2CO2)cc1 |  |  |  | AC50 (Cytochrome P450 1A2): 31.6 µM (inconclusive) |
| Cc1cc(C)c(OCC(=O)Nc2ccccc2N2CCCCC2)c(C)c1 | 4.09 µM (active) | 25.7 µM (active) | 15.7 µM (active) |  |
| CCOc1ccc(CN2CCN(Cc3[nH]c4ccc(OC)cc4c3C)CC2CCO)cc1 (stereo not drawn) |  |  |  | EC50 [2]: > 60 µM (not active); EC50 [3]: 0.141 µM (active) |
| CCOC(=O)N1CCC(N2Cc3cccc(C(=O)Nc4ccc(F)cc4)c3C2=O)CC1 | > 150 µM (not active) | 4.41 µM (active) | > 150 µM (not active) |  |
| CN(C)CCCN(C(=O)c1ccco1)c1nc2c(F)cc(F)cc2s1 |  |  |  | EC50 [2]: > 60 µM (not active); EC50 [3]: 0.101 µM (active) |
| COc1ccc(C2CC(C)(c3ccc(OC)cc3OC)Nc3ccccc3N2)c(OC)c1 (stereo not drawn) |  |  |  | EC50 [2]: > 60 µM (not active); EC50 [3]: 1.96 µM (active) |
| C1CCC(C(C[C@@H]2CCCCN2)C2CCCCC2)CC1 |  |  |  | AC50 (Cytochrome P450 1A2): 6.31 µM (inconclusive) |
| CCOC(=O)N1CCC(n2c(SCC(=O)Nc3ccccc3OC)nc3ccccc3c2=O)CC1 |  |  |  | EC50 [2]: > 60 µM (not active); EC50 [3]: 5.24 µM (active) |
| Cc1ccc(C(=O)C(c2ccccc2)N2Cc3ccccc3C2=N)cc1 (stereo not drawn) | 4.15 µM (active) | 5.37 µM (active) | > 150 µM (not active) |  |
| CC12CN3CC(C)(CN(C1)C31CCSCC1)C2=O |  |  |  | AC50 (Cytochrome P450 1A2): 12.6 µM (inconclusive) |
| O=C(N/N=C/c1c(O)ccc2ccccc12)Nc1ccccc1 |  | 8.29 µM (active) | 8.39 µM (active) | EC50 [6]: > 300 µM (not active) |
| Cc1cccc(/C=N/NC(=O)Cc2ccc(Cl)cc2)c1O |  | 4.52 µM (active) | 7.4 µM (active) |  |
| CC[C@H]1OC(=O)C[C@@H](O)[C@H](C)[C@@H](O[C@@H]2O[C@H](C)C[C@H](N(C)C)[C@H]2O)[C@@H](CC=O)C[C@@H](C)C(=O)C=C[C@]2(C)O[C@H]2[C@@H]1C |  | < 0.06 µM (active) | < 0.06 µM (active) |  |
| C=CCc1cccc(/C=N/NC(=O)C(=O)Nc2ccc(C)cc2)c1O | > 150 µM (not active) | > 150 µM (not active) | > 150 µM (not active) |  |
| O=C(N/N=C/c1cn(-c2cccs2)nc1-c1ccccc1)c1ccc(O)cc1 |  |  |  | AC50 [4]: 8.96 µM (active) |
| Cc1cc(SCC(=O)N/N=C/c2ccc(O)cc2O)nc2ccccc12 |  |  |  | EC50 [2]: 18.8 µM (active); AC50 [4]: 4.06 µM (active); EC50 [3]: 1.71 µM (active) |
| Cc1ccccc1/C=N/Nc1nc2ccccc2[nH]1 | > 150 µM (not active) | 146 µM (active) | > 150 µM (not active) |  |
| CCOC(=O)c1c(/N=C/C2C(=O)NC(=S)NC2=O)sc(C)c1C |  |  |  | EC50 [5]: > 300 µM (not active); EC50 [6]: > 300 µM (inconclusive) |
| Cc1cccc(CN2CCN(C(c3ccccc3)c3ccc(Cl)cc3)CC2)c1 (stereo not drawn) [MECLIZINE DIHCL] |  |  |  | AC50 [4]: 3.57 µM (active) |
